Read-outs that look alike come from different tables or passages of the source. One block for each compound: values may come before it.
Key:
BACE2 = BACE2 (Homo sapiens (Human), UniProt Q9Y5Z0); experiment: BACE2 Cell-free Assay; assay type: biochemical; settings: fluorescence polarization; 2.5 nM BACE2, 150 nM peptide substrate, pH 4.5, 3 hours at 37° C.; geometric mean
Method: BACE2 Assay: This assay measures the inhibition of the BACE2 enzyme as it cleaves a non-native peptide. […] The substrate is Biotin-[…](Oregon green)-KK-OH. The BACE2 enzyme is available from Enzo Life Sciences (Cat #BML-SE550). Compounds are incubated in a 1⁄2 log dose response curve from a top concentration of 100 μM with BACE2 enzyme and the biotinylated fluorescent peptide in 384-well black plates (Thermo Scientific #4318). […] Plates are covered and incubated for 3 hours at 37° C. The reaction is stopped with the addition of 30 μL of 1.5 μM Streptavidin (Pierce, #21125). After a 10 minute incubation at room temperature, plates are read on a PerkinElmer Envision for fluorescent polarization (Ex485 nm/Em530 nm). The activity of the beta-secretase enzyme is detected by changes in the fluorescence polarization that occur when the substrate is cleaved by the enzyme.

[1] = tested on: H4 human neuroglioma cells over-expressing the wild-type human APP695; experiment: sAPPβ Whole-Cell Assay (in vitro sAPPb assay); assay type: cell-based; settings: read-out: sAPPβ Whole-Cell Assay IC50
Method: Whole Cell Assay (In Vitro sAPPb Assay):
H4 human neuroglioma cells over-expressing the wild-type human APP695 are treated for 18 hours with compound in cell growth media having a final concentration 1% DMSO. sAPPβ levels are measured using TMB-ELISA with capture APP N-terminal antibody (Affinity BioReagents, OMA1-03132), wild-type sAPPβ specific reporter p192 (Elan), and tertiary anti rabbit-HRP (GE Healthcare).

BACE1 = BACE1 (Homo sapiens (Human), UniProt P56817); experiment: BACE1 Cell-Free Assay; assay type: biochemical; settings: fluorescence polarization; 0.1 nM BACE1, 150 nM peptide substrate, pH 4.5, 3 hours at 37° C.; geometric mean
[2] = H4 cells, 18 hours with compound, sAPPβ by TMB-ELISA, geometric mean

BACE1, sequence (P56817 46-457): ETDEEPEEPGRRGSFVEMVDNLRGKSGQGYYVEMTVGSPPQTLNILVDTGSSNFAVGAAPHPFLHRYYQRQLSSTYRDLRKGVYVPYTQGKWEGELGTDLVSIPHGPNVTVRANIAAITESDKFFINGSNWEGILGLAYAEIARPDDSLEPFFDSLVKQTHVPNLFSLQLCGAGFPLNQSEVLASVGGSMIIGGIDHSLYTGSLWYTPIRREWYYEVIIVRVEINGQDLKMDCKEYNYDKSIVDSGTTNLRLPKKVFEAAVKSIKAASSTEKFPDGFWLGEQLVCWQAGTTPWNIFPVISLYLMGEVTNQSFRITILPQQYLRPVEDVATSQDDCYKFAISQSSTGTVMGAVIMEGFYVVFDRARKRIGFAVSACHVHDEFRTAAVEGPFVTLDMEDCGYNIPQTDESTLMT
BACE2, sequence (Q9Y5Z0 63-518): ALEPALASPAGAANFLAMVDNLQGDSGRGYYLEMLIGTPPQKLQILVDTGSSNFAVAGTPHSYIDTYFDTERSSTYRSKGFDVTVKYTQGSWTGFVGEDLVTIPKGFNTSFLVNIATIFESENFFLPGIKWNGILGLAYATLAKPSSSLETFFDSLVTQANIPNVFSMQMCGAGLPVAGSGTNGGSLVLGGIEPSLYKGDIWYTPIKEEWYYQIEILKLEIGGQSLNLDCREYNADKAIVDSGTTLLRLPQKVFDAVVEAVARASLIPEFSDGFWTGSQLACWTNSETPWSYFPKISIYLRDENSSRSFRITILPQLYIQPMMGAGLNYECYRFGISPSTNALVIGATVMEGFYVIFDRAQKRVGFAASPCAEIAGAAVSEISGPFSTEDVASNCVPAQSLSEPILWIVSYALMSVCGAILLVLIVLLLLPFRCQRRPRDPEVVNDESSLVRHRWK

SMILES: CC(C)OC[C@H]1C[C@H]2[C@@H](C)SC(N)=N[C@@]2(c2ccc(F)cc2F)CO1 [Example 6, (4R,4aR,6R,8aS)-8a-(2,4-Difluorophenyl)-4-methyl-6-[(propan-2-yloxy)methyl]-4,4a,5,6,8,8a-hexahydropyrano[3,4-d][1,3]thiazin-2-amine]
IC50 (BACE2): 5080 nM | IC50 [1, 2]: 42.9 nM | IC50 (BACE1): 718 nM

SMILES: CC(C)C[C@H]1C[C@H]2CSC(N)=N[C@@]2(c2ccc(F)cc2F)CO1 [Example 7, (4aR,6S,8aS)-8a-(2,4-Difluorophenyl)-6-(2-methylpropyl)-4,4a,5,6,8,8a-hexahydropyrano[3,4-d][1,3]thiazin-2-amine]
IC50 [1, 2]: 20.6 nM

SMILES: NC1=N[C@@]2(c3ccc(F)cc3F)CO[C@@H](C(F)F)C[C@H]2CS1 [Example 4, (4aR,6R,8aS)-6-(Difluoromethyl)-8a-(2,4-difluorophenyl)-4,4a,5,6,8,8a-hexahydropyrano[3,4-d][1,3]thiazin-2-amine]
IC50 (BACE2): 2140 nM

SMILES: CCOC[C@H]1C[C@H]2[C@@H](C)SC(N)=N[C@@]2(c2ccc(F)cc2F)CO1 [Example 5, (4R,4aR,6R,8aS)-8a-(2,4-Difluorophenyl)-6-(ethoxymethyl)-4-methyl-4,4a,5,6,8,8a-hexahydropyrano[3,4-d][1,3]thiazin-2-amine]
IC50 (BACE2): 274 nM | IC50 ([1]; 18 h): 39 nM | IC50 (BACE1): 613 nM

Continued by falling IC50 (BACE2), values first:

IC50 (BACE2): 2310 nM | IC50 [1, 2]: 31.9 nM | IC50 (BACE1): 737 nM
SMILES: COC[C@H]1C[C@H]2[C@@H](C)SC(N)=N[C@@]2(c2ccc(F)cc2F)CO1 [Example 2, (4R,4aR,6R,8aS)-8a-(2,4-Difluorophenyl)-6-(methoxymethyl)-4-methyl-4,4a,5,6,8,8a-hexahydropyrano[3,4-d][1,3]thiazin-2-amine]

IC50 (BACE2): 1630 nM | IC50 [1, 2]: 30 nM
SMILES: COC[C@H]1C[C@H]2CSC(N)=N[C@@]2(c2ccc(F)cc2F)CO1 [Example 8, (4aR,6R,8aS)-8a-(2,4-Difluorophenyl)-6-(methoxymethyl)-4,4a,5,6,8,8a-hexahydropyrano[3,4-d][1,3]thiazin-2-amine]

IC50 (BACE2): 1560 nM | IC50 [1, 2]: 61.4 nM | IC50 (BACE1): 805 nM
SMILES: C[C@H]1SC(N)=N[C@@]2(c3ccc(F)cc3F)CO[C@@H](CF)C[C@@H]12 [Example 1, (4R,4aR,6R,8aS)-8a-(2,4-Difluorophenyl)-6-(fluoromethyl)-4-methyl-4,4a,5,6,8,8a-hexahydropyrano[3,4-d][1,3]thiazin-2-amine]

IC50 (BACE2): 1140 nM | IC50 [1, 2]: 37.2 nM
SMILES: C[C@H]1C[C@H]2CSC(N)=N[C@@]2(c2ccc(F)cc2F)CO1 [Example 3, (4aR,6S,8aS)-8a-(2,4-Difluorophenyl)-6-methyl-4,4a,5,6,8,8a-hexahydropyrano[3,4-d][1,3]thiazin-2-amine]
